Values quoted from earlier work in patent US20130095160A1, “RESORBABLE POLYSTATIN BIOMATERIALS” (priority 2011, published 2013).

What was measured:
eNOS = conditions: 12 mg (or 10(−5) M lovastatin); previously shown
SR-BI receptor = molecular target: T1, SR-BI receptor (Homo sapiens, UniProt Q8WTV0); conditions: via activation of the SR-BI receptor
T1 sequence (Q8WTV0 1-552): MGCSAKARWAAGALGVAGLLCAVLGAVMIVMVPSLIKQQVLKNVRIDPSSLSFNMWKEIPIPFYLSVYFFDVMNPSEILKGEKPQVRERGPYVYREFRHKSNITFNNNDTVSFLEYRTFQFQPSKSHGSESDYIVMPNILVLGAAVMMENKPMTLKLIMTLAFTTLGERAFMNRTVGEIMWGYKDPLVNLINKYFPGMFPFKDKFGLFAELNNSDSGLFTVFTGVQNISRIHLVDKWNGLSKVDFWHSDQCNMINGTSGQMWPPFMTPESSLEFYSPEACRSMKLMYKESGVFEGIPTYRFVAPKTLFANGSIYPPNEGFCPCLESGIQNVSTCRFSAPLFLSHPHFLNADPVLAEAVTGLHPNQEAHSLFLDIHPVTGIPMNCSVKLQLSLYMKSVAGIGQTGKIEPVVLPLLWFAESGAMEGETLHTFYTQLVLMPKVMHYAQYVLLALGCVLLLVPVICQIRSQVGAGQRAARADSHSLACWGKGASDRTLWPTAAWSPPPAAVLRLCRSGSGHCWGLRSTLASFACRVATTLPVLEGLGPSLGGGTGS

- efficiency at generating EDNO compared with HDL (SR-BI receptor): more efficient than HDL
SMILES: CC[C@H](C)C(=O)O[C@H]1C[C@@H](C)C=C2C=C[C@H](C)[C@H](CC[C@@H]3C[C@@H](O)CC(=O)O3)[C@H]21 [lovastatin]
- eNOS activation in vitro (eNOS): maximally effective
